Legend:
[1] = test system: FVB/N mouse induced with skin tumor; assay: DMBA/TPA induced skin tumor model; format: in vivo
Procedure: In this invention, the male FVB/N mice (6-7 weeks, Jackson Laboratory, USA) were raised under the condition of 12 hr bright lighting/12 hr dim lighting at the temperature of 24±2° C. with the humidity of 50±10% with water and feed provided freely. The care and process of the test animal was reviewed and approved by Institutional Animal Care and Use Committee (IACUC), Korea Research Institute of Bioscience and Biotechnology (KRIBB). DMBA (7,12-dimethylbenz[α]anthracene), TPA (12-O-tetradecanoylphorbol-13-acetate) and cholchicine were purchased from Sigma-Aldrich, and the synthesized ethyl(2-methyl-3{(E)-[(naphtho[2,1-b]furan-2-ylcarbonyl)hydrazono]methyl}-1H-indole-1-yl)acetate was provided from Dr. Thimmegowda.
Particularly, the dorsal skin of the said FVB/N mouse was shaved two days before the experiment. 100 μg of DMBA was added to 0.2 ml of acetone, which was treated to the mouse by single-local administration for 1 week to induce tumor. 5 fig of TPA was added to 0.2 ml of acetone, which was treated to the above mouse induced with tumor […] for 15 weeks to grow the tumor. 500 nM of ethyl(2-methyl-3{(E)-[(naphtho[2,1-b]furan-2-ylcarbonyl)hydrazono]methyl}-1H-indole-1-yl)acetate or cholchicine was dissolved in 0.2 ml of acetone, which was treated to the above mouse locally for 30 minutes each time for 15 weeks. Each group was composed of at least 10 mice and total 4 groups were prepared:
Group 1: DMBA and acetone treated group (negative control)
Group 2: DMBA and TPA treated group (positive control)
Group 3: DMBA/TPA and cholchicine treated group (experimental group 1)
Group 4: DMBA/TPA and ethyl(2-methyl-3{(E)-[(naphtho[2,1-b]furan-2-ylcarbonyl)hydrazono]methyl}-1H-indole-1-yl)acetate treated group (experimental group 2).
In addition, skin tumor such as papilloma was checked every week during the whole period of experiment. The tumor in the size of at least 2 mm was judged as positive. 15 weeks later, the mice were sacrificed with CO2. The skin tumor was extracted for histopathological/biochemical analysis.
The average number and the volume of tumor in each group were calculated.
Each mouse group was treated with different materials by the same manner as described in Example <8-2>, followed by observation for 15 weeks, and then the number of mice having skin tumor was counted. Tumor development rate was presented as %.
The mouse induced with skin tumor by the same manner as described in Example <8-2> was treated with DMBA, and then the induced tumors were observed and weighed for 15 weeks to produce the average weight of tumor.

HT-29 = assay: Anti-proliferative MTT assay, HT-29; format: cell-based; details: Homo sapiens, 96 h, HT-29, Large intestine, 4 days
Procedure: Various cancer cell lines (rectal cancer, prostate cancer, breast cancer, lung cancer, stomach cancer, liver cancer, leukemia, brain cancer, and glioma cell lines) were cultured in microtiter plate (1-3×10^3 cells/well), to which ethyl(2-methyl-3{(E)-[(naphtho[2,1-b]furan-2-ylcarbonyl)hydrazono]methyl}-1H-indole-1-yl)acetate was treated. The culture continued for 4 days. Cytotoxicity was investigated by MTT assay by the same manner as described in Example <1-2>. IC50 was calculated by long-dose response curve. The data presents the mean value obtained from the assay performed in triplicate.

HeLa cell line = assay: Anti-proliferative activity in HeLa cells (MTT assay); format: cell-based; details: Homo sapiens
Procedure: Particularly, HeLa cell line (ATCC, USA) was treated with the compounds of Table 1 respectively, and then IC50 (the half maximal inhibitory concentration) was investigated (Table 1).
HeLa cells were treated with 100 nM, 250 nM, 500 nM and 1 μM of ethyl(2-methyl-3{(E)-[(naphtho[2,1-b]furan-2-ylcarbonyl)hydrazono]methyl}-1H-indole-1-yl)acetate or DMSO for 4 days. Then, the cell growth was confirmed by MTT assay. All the obtained numbers were calculated by normalizing the value of Day 0. The data presents the mean value obtained from the assay performed in triplicate.
Particularly, HeLa cells were distributed in a 96-well plate at the density of 2×10^3 cells/well. The cells were treated with DMSO or the compound of the present invention, to which MTT reagent was added at the concentration of 10 μl/well. 2 hours later, OD450 was measured, which became the value of Day 0. 4 days later, MTT reagent was added thereto again. 2 hours later, OD450 was measured. The data presents the mean value obtained from the assay performed in triplicate.

MCF7/ADR = assay: Cytotoxicity MTT assay, multi-drug resistant MCF7/ADR; format: cell-based
Procedure: Particularly, K562, MCF7 (Bio-Evaluation Center, Korea Research Institute of Bioscience and Biotechnology, Korea), and the multi-drug resistant cell lines thereof, K562/ADR and MCF7/ADR (Bio-Evaluation Center, Korea Research Institute of Bioscience and Biotechnology, Korea) were cultured in microtiter plate (1-3×10^3 cells/well). Then, the cells were treated with ethyl(2-methyl-3{(E)-[(naphtho[2,1-b]furan-2-ylcarbonyl)hydrazono]methyl}-1H-indole-1-yl)acetate, doxorubicin, or taxol, followed by culture for 4 days. Cytotoxicity was investigated by MTT assay by the same manner as described in Example <1-2>. IC50 was calculated by long-dose response curve. The data presents the mean value obtained from the assay performed in triplicate (Table 3).
The resistance factor of the multi-drug resistant cell line indicates the ratio of IC50 of the multi-drug resistant cell line to IC50 of the parent cell line showing no resistance, which was presented as a number in the bracket.

HeLa cells = assay: Immunofluorescence of intracellular microtubules and chromosomes; format: cell-based
Procedure: To investigate the effect of ethyl(2-methyl-3{(E)-[(naphtho[2,1-b]furan-2-ylcarbonyl)hydrazono]methyl}-1H-indole-1-yl)acetate on intracellular microtubules, HeLa cells were treated with DMSO, Taxol (100 μM), nocodazole (200 ng/ml), or ethyl(2-methyl-3{(E)-[(naphtho[2,1-b]furan-2-ylcarbonyl)hydrazono]methyl}-1H-indole-1-yl)acetate (5 μM) for 17 hours. After fixing the cells, the cells were immuno-stained with Alexa Fluor 488-conjugated anti-tubulin antibody and Hoechst 33342 to confirm α-tubulin and chromosomes.

caspase-3 and PARP = assay: Immunoblotting of apoptosis related proteins; format: cell-based; details: HeLa cells
Procedure: Particularly, HeLa cells were treated with DMSO or ethyl(2-methyl-3{(E)-[(naphtho[2,1-b]furan-2-ylcarbonyl)hydrazono]methyl}-1H-indole-1-yl)acetate for 24 or 48 hours. Then, immunoblotting was performed to investigate the expressions of caspase-3 and PARP, the apoptosis related proteins. PARP (poly(ADP-ribose)polymerase) is one of the downstream cleavage proteins derived from caspase3. Immunoblotting was performed using caspase-3, PARP, and GAPDH specific antibodies.

## CCOC(=O)Cn1c(C)c(/C=N/NC(=O)c2cc3c(ccc4ccccc43)o2)c2ccccc21 [STK899704]
[1]; 500 nM in 0.2 ml acetone, local, 15 weeks
  number of skin tumor: significantly reduced
[1]; 15 weeks
  weight of tumor compared with positive control: significantly lighter
[1]; 15 weeks, 500 nM local
  average volume of skin tumor reduced compared with positive control: 20.3%
  decrease of average number of skin tumor compared with positive control: 4.75 times
[1]; 15 weeks, experimental group 2
  average weight of tumor as fraction of positive control: 1/10
[1]; tumor of at least 2 mm, positive control from 8th week
  week to which tumor formation was postponed: 10 week
HT-29
  IC50: 701 nM
HeLa cell line; 96 h, HeLa, Cervix, MTT, 4 days
  IC50: 260 nM
HeLa cell line; HeLa cell line
  IC50: 260 nM
MCF7/ADR; Homo sapiens, NCI/ADR-RES, 96 h, MCF7/ADR, MTT, 4 days
  IC50: 225000 nM
MCF7/ADR; ratio of IC50 of MCF7/ADR to IC50 of parent MCF7
  resistance factor (number in the bracket): 0.2
HeLa cells; 1 μM
  effect on microtubules (immunofluorescence over concentrations): all the microtubules were destroyed
HeLa cells; 17 hours, Taxol 100 μM, nocodazole 200 ng/ml, compound 5 μM
  effect on microtubules and chromosomes (immunostaining): chromosomes were not fully condensed and microtubules were destroyed
caspase-3 and PARP; 48 hours
  PARP cleavage: significantly increased
caspase-3 and PARP; 48 hours, 0.5 μM
  caspase-3 cleavage: significantly increased
caspase-3 and PARP; 48 hours, 1 and 5 μM
  caspase-3 cleavage: more significantly increased
caspase-3 and PARP; within 24 hours
  caspase-3 cleavage: not observed
